Measured values published in PMC9402538, “Rational design of a sensitivity-enhanced tracer for discovering efficient APC–Asef inhibitors” (Nature Communications, 2022).
Where two headings read alike, the source gives them in different places. Where a SMILES comes first, the peptide text is derived from it. [ ]: non-standard residue; d: D form. The star is where a group is joined. Ala(cPent) = N[C@@H](CC1CCCC1)C(=O)O; Benzoyl(4-OMe) = COc1ccc(C(=O)*)cc1

Target: T1, APC (303–739) (Homo sapiens, UniProt P25054)
T1 sequence (P25054 303-739): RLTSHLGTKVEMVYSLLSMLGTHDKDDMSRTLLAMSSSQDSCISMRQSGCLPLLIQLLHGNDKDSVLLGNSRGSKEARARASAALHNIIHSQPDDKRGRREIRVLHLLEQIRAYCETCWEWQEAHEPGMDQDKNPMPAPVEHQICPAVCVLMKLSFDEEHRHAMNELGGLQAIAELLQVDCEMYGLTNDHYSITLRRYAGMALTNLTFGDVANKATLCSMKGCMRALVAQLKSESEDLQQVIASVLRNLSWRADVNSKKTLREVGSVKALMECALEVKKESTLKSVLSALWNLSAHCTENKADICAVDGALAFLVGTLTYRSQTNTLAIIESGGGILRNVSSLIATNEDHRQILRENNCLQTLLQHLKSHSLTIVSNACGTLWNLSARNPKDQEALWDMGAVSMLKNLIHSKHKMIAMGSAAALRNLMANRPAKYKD
Test: FP competitive assay using tracer 7
Assay type: binding
Settings: for IC50: tracer 7
Method in brief: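 Fluorescence polarization competition: APC (303–739) in 50 mM HEPES pH 7.5, 300 mM NaCl, 1 mM EDTA, 1 mM DTT, preincubated 1 h at room temperature with serially diluted peptides. FITC tracer 7 then added (400 nM stock) and FP read after 1.5 h at room temperature; IC50 by nonlinear regression, triplicates.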

[1] = Conc. 4 μM, individual repeats, Fig3b

COc1ccc(C(=O)N[C@@H](C)C(=O)NCC(=O)N[C@@H](CCC(=O)O)C(=O)N[C@@H](CO)C(=O)N[C@@H](CC2CCCC2)C(=O)N[C@@H](Cc2ccc(O)cc2)C(=O)N[C@@H](CCC(=O)O)C(N)=O)cc1 [MAI-519] ({Benzoyl(4-OMe)}-AGES[Ala(cPent)]YE-NH2) was tested, and the inhibition at 0.001 µM (Conc. 0.001 μM, individual repeats, Fig3b, read-out: %inhibition) was 1.6%, the “%inhibition” value (Conc. 0.002 μM, individual repeats, Fig3b) was 2.6% and the inhibition at 0.002 µM (Conc. 0.002 μM, individual repeats, Fig3b, read-out: %inhibition) was 2.9%. For the same compound, the “%inhibition” value (Conc. 0.0039 μM, individual repeats, Fig3b) was 5.4%, the inhibition at 0.0039 µM (Conc. 0.0039 μM, individual repeats, Fig3b, read-out: %inhibition) was 4.1% and the inhibition at 0.006 µM (Conc. 0.006 μM, individual repeats, Fig3b, read-out: %inhibition) was 4.4%. The “%inhibition” value (Conc. 0.0078 μM, individual repeats, Fig3b) was 13.3%, the inhibition at 0.0078 µM (Conc. 0.0078 μM, individual repeats, Fig3b, read-out: %inhibition) was 8.8% and the inhibition at 0.012 µM (Conc. 0.012 μM, individual repeats, Fig3b, read-out: %inhibition) was 16.9%. For the same compound, the “%inhibition” value (Conc. 0.0156 μM, individual repeats, Fig3b) was 35%, the inhibition at 0.0156 µM (Conc. 0.0156 μM, individual repeats, Fig3b, read-out: %inhibition) was 24% and the inhibition at 0.024 µM (Conc. 0.024 μM, individual repeats, Fig3b, read-out: %inhibition) was 38.4%. For the same compound, the “%inhibition” value (Conc. 0.0313 μM, individual repeats, Fig3b) was 59%, the inhibition at 0.0313 µM (Conc. 0.0313 μM, individual repeats, Fig3b, read-out: %inhibition) was 51.7% and the inhibition at 0.049 µM (Conc. 0.049 μM, individual repeats, Fig3b, read-out: %inhibition) was 60.2%. The “%inhibition” value (Conc. 0.0625 μM, individual repeats, Fig3b) was 74.1%, the inhibition at 0.0625 µM (Conc. 0.0625 μM, individual repeats, Fig3b, read-out: %inhibition) was 71.7% and the inhibition at 0.098 µM (Conc. 0.098 μM, individual repeats, Fig3b, read-out: %inhibition) was 77.7%. For the same compound, the “%inhibition” value (Conc. 0.125 μM, individual repeats, Fig3b) was 86.1%, the inhibition at 0.125 µM (Conc. 0.125 μM, individual repeats, Fig3b, read-out: %inhibition) was 85.5% and the inhibition at 0.195 µM (Conc. 0.195 μM, individual repeats, Fig3b, read-out: %inhibition) was 89%. For the same compound, the “%inhibition” value (Conc. 0.25 μM, individual repeats, Fig3b) was 91.7%, the inhibition at 0.25 µM (Conc. 0.25 μM, individual repeats, Fig3b, read-out: %inhibition) was 92.8% and the inhibition at 0.391 µM (Conc. 0.391 μM, individual repeats, Fig3b, read-out: %inhibition) was 94.2%. The “%inhibition” value (Conc. 0.5 μM, individual repeats, Fig3b) was 95.8%, the inhibition at 0.5 µM (Conc. 0.5 μM, individual repeats, Fig3b, read-out: %inhibition) was 96.7% and the inhibition at 0.781 µM (Conc. 0.781 μM, individual repeats, Fig3b, read-out: %inhibition) was 97.3%. The “%inhibition” value (Conc. 1 μM, individual repeats, Fig3b) was 97.7%, the inhibition at 1 µM (Conc. 1 μM, individual repeats, Fig3b, read-out: %inhibition) was 98.4% and the inhibition at 1.563 µM (Conc. 1.563 μM, individual repeats, Fig3b, read-out: %inhibition) was 98.1%. For the same compound, the inhibition at 2 µM (Conc. 2 μM, individual repeats, Fig3b, read-out: %inhibition) was 99.3%, the inhibition at 3.125 µM (Conc. 3.125 μM, individual repeats, Fig3b, read-out: %inhibition) was 98.9% and the “%inhibition” value [1] was 98.8%. For the same compound, the inhibition at 4 µM [1] was 99%, the inhibition at 6.25 µM (Conc. 6.25 μM, individual repeats, Fig3b, read-out: %inhibition) was 99.5% and the inhibition at 8 µM (Conc. 8 μM, individual repeats, Fig3b) was 99%. For the same compound, the inhibition at 12.5 µM (Conc. 12.5 μM, individual repeats, Fig3b, read-out: %inhibition) was 97.6%, the inhibition at 25 µM (Conc. 25 μM, individual repeats, Fig3b, read-out: %inhibition) was 97.6% and the inhibition at 50 µM (Conc. 50 μM, individual repeats, Fig3b, read-out: %inhibition) was 97.6%. The “mean (FP signal, FigS5)” value (Repeat 1, Conc. 0.006 μM) was 284.3, the “mean (FP signal, FigS5)” value (Repeat 1, Conc. 0.012 μM) was 253.5 and the “mean (FP signal, FigS5)” value (Repeat 1, Conc. 0.024 μM) was 200.3. The “mean (FP signal, FigS5)” value (Repeat 1, Conc. 0.049 μM) was 146.3, the “mean (FP signal, FigS5)” value (Repeat 1, Conc. 0.098 μM) was 103 and the “mean (FP signal, FigS5)” value (Repeat 1, Conc. 0.195 μM) was 75. For the same compound, the “mean (FP signal, FigS5)” value (Repeat 1, Conc. 0.391 μM) was 62, the “mean (FP signal, FigS5)” value (Repeat 1, Conc. 0.781 μM) was 54.3 and the “mean (FP signal, FigS5)” value (Repeat 1, Conc. 1.563 μM) was 52.3. For the same compound, the “mean (FP signal, FigS5)” value (Repeat 1, Conc. 3.125 μM) was 50.3, the “mean (FP signal, FigS5)” value (Repeat 1, Conc. 6.25 μM) was 49 and the “mean (FP signal, FigS5)” value (Repeat 1, Conc. 12.5 μM) was 53.7. The “mean (FP signal, FigS5)” value (Repeat 1, Conc. 25 μM) was 53.7, the “mean (FP signal, FigS5)” value (Repeat 1, Conc. 50 μM) was 53.7 and the “mean (FP signal, FigS5)” value (Repeat 2, Conc. 0.001 μM) was 301. For the same compound, the “mean (FP signal, FigS5)” value (Repeat 2, Conc. 0.002 μM) was 297.7, the “mean (FP signal, FigS5)” value (Repeat 2, Conc. 0.0039 μM) was 294.7 and the “mean (FP signal, FigS5)” value (Repeat 2, Conc. 0.0078 μM) was 282.7. For the same compound, the “mean (FP signal, FigS5)” value (Repeat 2, Conc. 0.0156 μM) was 244, the “mean (FP signal, FigS5)” value (Repeat 2, Conc. 0.0313 μM) was 173.3 and the “mean (FP signal, FigS5)” value (Repeat 2, Conc. 0.0625 μM) was 122.3. The “mean (FP signal, FigS5)” value (Repeat 2, Conc. 0.125 μM) was 87.3, the “mean (FP signal, FigS5)” value (Repeat 2, Conc. 0.25 μM) was 68.7 and the “mean (FP signal, FigS5)” value (Repeat 2, Conc. 0.5 μM) was 58.7. For the same compound, the “mean (FP signal, FigS5)” value (Repeat 2, Conc. 1 μM) was 54.3, the “mean (FP signal, FigS5)” value (Repeat 2, Conc. 2 μM) was 52 and the “mean (FP signal, FigS5)” value (Repeat 2, Conc. 4 μM) was 53. The “mean (FP signal, FigS5)” value (Repeat 2, Conc. 8 μM) was 53, the “mean (FP signal, FigS5)” value (Repeat 3, Conc. 0.001 μM) was 292.7 and the “mean (FP signal, FigS5)” value (Repeat 3, Conc. 0.002 μM) was 290.3. The “mean (FP signal, FigS5)” value (Repeat 3, Conc. 0.0039 μM) was 283.3, the “mean (FP signal, FigS5)” value (Repeat 3, Conc. 0.0078 μM) was 264 and the “mean (FP signal, FigS5)” value (Repeat 3, Conc. 0.0156 μM) was 211. For the same compound, the “mean (FP signal, FigS5)” value (Repeat 3, Conc. 0.0313 μM) was 152, the “mean (FP signal, FigS5)” value (Repeat 3, Conc. 0.0625 μM) was 115 and the “mean (FP signal, FigS5)” value (Repeat 3, Conc. 0.125 μM) was 85.7. The “mean (FP signal, FigS5)” value (Repeat 3, Conc. 0.25 μM) was 72, the “mean (FP signal, FigS5)” value (Repeat 3, Conc. 0.5 μM) was 62 and the “mean (FP signal, FigS5)” value (Repeat 3, Conc. 1 μM) was 57.3. The “mean (FP signal, FigS5)” value (Repeat 3, Conc. 2 μM) was 56.3, the “mean (FP signal, FigS5)” value (Repeat 3, Conc. 4 μM) was 54.7 and the “mean (FP signal, FigS5)” value (Repeat 3, Conc. 8 μM) was 53.3. It also gave an IC50 (mean of three repeats, read-out: IC50 mean) of 25.1 nM, an IC50 (read-out: IC50 Repeat 1) of 23 nM and an IC50 (read-out: IC50 Repeat 2) of 29.6 nM. For the same compound, the IC50 (read-out: IC50 Repeat 3) was 22.7 nM.
